Data from patent US20250000767A1, “FORMULATIONS AND METHODS FOR SKIN REGENERATION” (ENTRINSIC, LLC, priority 2023, published 2025).

Legend:
Format in all cases: cell-based, human
[1] = test system: skin barrier marker genes in differentiated NHEK; test: comparative analysis of qPCR data from two donors with scoring system, single amino acids; settings: for ranking as most effective or least effective amino acids (scoring system): qPCR data from two donors
Source text: The scoring system was developed to address the numerous variables arising from the experimental results. […] See, e.g., FIGS. 3 and 4.
(§1) To test the effect of amino acid treatment on epithelial skin barrier, a cellular model of differentiated normal human epidermal keratinocytes (NHEK) was utilized. Commercially available NHEK (ATCC), derived from three diverse healthy donors, were used.

[2] = test system: EGF, PDGF, FGF2, and PPARD genes (skin barrier markers); test: single amino acids and combinations on barrier marker genes EGF, FGF2, PDGF, PPARD in differentiated NHEK (FIG. 28); settings: alone or in combination; action on skin barrier markers
Description: Treatment time-4 h. […] Exemplary barrier marker genes examined as follows: Epidermal growth factor (EGF); fibroblast growth factor 2 (FGF2); platelet derived growth factor (PDGF); Peroxisome Proliferator Activated Receptor Delta (PPARD).
Once the skin barrier marker panel was identified, a scoring system by which to evaluate different amino acids or combinations thereof under consideration was developed. The scoring system was developed to address the numerous variables arising from the experimental results. […] Sec, e.g., FIG. 28. […] See, e.g., FIG. 29.
as §1
The marker genes: epidermal growth factor (EGF); platelet-derived growth factor (PDGF), fibroblast growth factor 2 (FGF2), peroxisome proliferator activated receptor delta (PPARD).
Amino acid(s) are mixed in previously established concentrations in water and added to amino acid-deprived culture medium.
mRNA is extracted, converted to cDNA, and analyzed by qPCR method using custom TaqMan array 384-well plates (Thermo Fisher Scientific) containing the above-mentioned genes. Control housekeeping genes were included to normalize the mRNA expression: GAPDH and/or YWHAZ. The array plate contained the genes and samples were analyzed in by qPCR.

COL1A1 mRNA = COL1A1 mRNA fold change in donor keratinocytes, 4GAA and retinol (qPCR); settings: 4 h, amino acid-deprived medium, 4GAA 4 mM, ROL 10 μM
Description: (§2) FIGS. 17A-17C show the fold change of a specific gene mRNA comparing the 4 amino acid combination (Ala, Gln, Gly, Ser; 4GAA; 4 mM), and retinol (ROL; 10 μM), alone or in combination, to control (CTR; untreated control without amino acids or retinol) with Donor E, Donor G. Donor O, Donor R, and Donor T human-derived epidermal keratinocytes (NHEK) with a 4 h treatment in amino acid (AA)-deprived medium. The data are shown in graphical form showing CTR; 4GAA (4 mM); ROL (10 μM); 4GAA (4 mM)+ROL (10 μM) combination.
(§3) Keratinocytes from different donors (e.g., human-derived epidermal keratinocytes (NHEK)), skin equivalents (e.g., 3D models (human epidermal skin equivalents)), or fibroblasts (e.g., human dermal fibroblasts, adult (HDFa)) were cultured in amino acid-deprived media or complete media for 4 hours or 24 hours after complete differentiation and, in parallel, were treated with an amino acid combination (4GAA; alanine, glutamine, glycine, serine) at 4 mM, 10 μM retinol (ROL), or the combination of 4 mM 4GAA and 10 μM ROL. Cells were harvested, RNA was extracted, and qPCR analysis was performed with a housekeeping gene, e.g., GAPDH.
(§4) FIGS. 17A-17C and 18A-18C show the graphical results of the fold change, where the average fold change is depicted by the horizontal bar for each condition and each of the donors (Donors E, G, O, R, T) is depicted by a colored circle. […]

HAS2 mRNA = HAS2 mRNA fold change in donor keratinocytes, 4GAA and retinol (qPCR); settings: 4GAA 4 mM, ROL 10 μM
Description: (§5) FIGS. 18A-18C show the fold change of a specific gene mRNA comparing the 4 amino acid combination (Ala, Gln, Gly, Ser; 4GAA; 4 mM), and retinol (ROL; 10 μM), alone or in combination with Donor E. Donor G. Donor O. Donor R. and Donor T human-derived epidermal keratinocytes (NHEK) to control (CTR; untreated control without amino acids or retinol) with a 4 h treatment in amino acid (AA)-deprived medium. The data of FIGS. 18A-18C are shown in graphical form showing CTR; 4GAA (4 mM); ROL (10 μM); 4GAA (4 mM)+ROL (10 μM) combination. […] FIGS. 18D-18F show the data in tabular form (Donor E (n=3). Donor G (n=3). Donor O (n=3). Donor R (n=3), and Donor T (n=3)) for fold change of HAS1 mRNA. HAS2 mRNA, and HAS3 mRNA, respectively, and in tabular form showing the fold change for each of the specified conditions under each respective graphical form.
(§6) FIGS. 19A-19D show the fold change of a specific gene mRNA comparing the 4 amino acid combination (Ala. Gln. Gly, Ser; 4GAA; 4 mM), and retinol (ROL; 10 μM), alone or in combination to control (CTR; untreated control without amino acids or retinol) with Donor O human-derived epidermal keratinocytes (NHEK) with a 24 h treatment in complete medium. The data of FIGS. 19A-19D are shown in graphical form showing CTR; 4GAA (4 mM); ROL (10 μM); 4GAA (4 mM)+ROL (10 μM) combination. […]

HAS3 mRNA = HAS3 mRNA fold change in donor keratinocytes, 4GAA and retinol (qPCR); settings: 4GAA 4 mM, ROL 10 μM
Description: as §5, §6

TGFB mRNA = TGFB mRNA fold change in donor keratinocytes, 4GAA and retinol (qPCR); settings: 4 h, amino acid-deprived medium, 4GAA 4 mM, ROL 10 μM
Description: as §2, §3, §4

[3] = Donor O and Donor R keratinocytes, 24 h, complete medium
[4] = donor keratinocytes, 4 h, amino acid-deprived medium

Question: For `C[C@H](N)C(=O)O` [Ala, alanine], which “ranking as most effective or least effective amino acids (scoring system)” value (from here on “ranking”) [1] is on record?
Answer: most effective

Question: What about the “effect on skin regeneration including skin barrier function” value [2] of the same compound?
Answer: beneficial effect

Question: How did the “effects in preliminary screens” value [1] turn out when `N=C(N)NCCC[C@H](N)C(=O)O` [Arg, arginine] was run?
Answer: positive effects

Question: What about the “effect on skin regeneration including skin barrier function” value [2] of the same compound?
Answer: beneficial effect

Question: `N[C@@H](CC(=O)O)C(=O)O` [Asp, aspartic acid] was tested. Which “ranking” value [1] did it give?
Answer: least effective

Question: With `N[C@@H](CS)C(=O)O` [Cys, cysteine] as the compound, how does the “ranking” value [1] read?
Answer: least effective

Question: Which results are given for `NC(=O)CC[C@H](N)C(=O)O` [Gln, glutamine]?
Answer: ranking as most effective or least effective amino acids (scoring system) [1]: most effective; effect on skin regeneration including skin barrier function [2]: beneficial effect

Question: For `NCC(=O)O` [Gly, glycine], which “ranking” value [1] is on record?
Answer: most effective

Question: And the “effect on skin regeneration including skin barrier function” value [2]?
Answer: beneficial effect

Question: With `O=C(O)[C@@H]1CCCN1` [Pro] as the compound, how does the “ranking” value [1] read?
Answer: least effective

Question: `CC1=C(/C=C/C(C)=C/C=C/C(C)=C/CO)C(C)(C)CCC1` [ROL, retinol] was tested. Which “COL1A1 mRNA expression” value (COL1A1 mRNA) did it give?
Answer: upregulated

Question: And the “HAS2 mRNA gene expression” value (HAS2 mRNA; [3])?
Answer: upregulated

Question: What about the HAS2 gene expression (HAS2 mRNA; [4]) of the same compound?
Answer: upregulated

Question: What about the “HAS3 mRNA gene expression” value (HAS3 mRNA; [3]) of the same compound?
Answer: upregulated

Question: What about the HAS3 gene expression (HAS3 mRNA; [4]) of the same compound?
Answer: upregulated

Question: And the “TGFB mRNA expression” value (TGFB mRNA)?
Answer: upregulated

Question: What does the source list for `N[C@@H](CO)C(=O)O` [Ser, serine]?
Answer: ranking as most effective or least effective amino acids (scoring system) [1]: most effective; effect on skin regeneration including skin barrier function [2]: beneficial effect

Question: How did the “ranking” value [1] turn out when `C[C@@H](O)[C@H](N)C(=O)O` [Thr, threonine] was run?
Answer: least effective

Question: And the “effect on skin regeneration including skin barrier function” value [2]?
Answer: beneficial effect

Question: Which results are given for `N[C@@H](Cc1c[nH]c2ccccc12)C(=O)O` [Trp, tryptophan]?
Answer: effects in preliminary screens [1]: positive effects; effect on skin regeneration including skin barrier function [2]: beneficial effect

Question: Which “ranking” value [1] does the source give for `N[C@@H](Cc1ccc(O)cc1)C(=O)O` [Tyr, tyrosine] here?
Answer: least effective

Question: How did the “effect on skin regeneration including skin barrier function” value [2] turn out when `CC[C@H](C)[C@H](N)C(=O)O` [isoleucine] was run?
Answer: beneficial effect

Question: Which “effect on skin regeneration including skin barrier function” value [2] does the source give for `CC(C)[C@H](N)C(=O)O` [valine] here?
Answer: beneficial effect
